Values of other authors as cited in US8871800B2, “Statin and omega-3 fatty acids for reduction of Apo-B levels” (GlaxoSmithKline, LLC, priority 2006, dated 2014).

Legend:
[1] = system: patients with hyperlipemia; conditions: atorvastatin monotherapy 10 mg/day, 5 weeks; compared to baseline
[2] = system: obese, insulin-resistant men with dyslipidemia; conditions: atorvastatin monotherapy 40 mg/day, 6 weeks
[3] = system: patients with hypercholesterolemia; conditions: lovastatin monotherapy 40 mg/day, 6 weeks
[4] = system: patients with familial hypercholesterolemia; conditions: monotherapy (6 g/day Omacor or 40 mg/day lovastatin), 6 weeks

Compound | Apo-B levels [1] | HDL-C levels [1] | LDL-C levels [1] | triglyceride levels [1] | Apo-B levels [2] | Apo-B levels [3] | HDL-C levels [3] | LDL-C levels [3] | triglyceride levels [3] | Apo-B levels [4]
CC(C)c1c(C(=O)Nc2ccccc2)c(-c2ccccc2)c(-c2ccc(F)cc2)n1CC[C@@H](O)C[C@@H](O)CC(=O)O [atorvastatin] | significantly decreased | significantly increased | significantly decreased | significantly decreased | significantly decreased |  |  |  |  | 
CC[C@H](C)C(=O)O[C@H]1C[C@@H](C)C=C2C=C[C@H](C)[C@H](CC[C@@H]3C[C@@H](O)CC(=O)O3)[C@H]21 [lovastatin] |  |  |  |  |  | significantly reduced | significant increases | significant decreases | significant decreases | significantly reduced
